In US20160102317A1, “PLANTS HAVING INCREASED TOLERANCE TO HERBICIDES” (BASF SE, priority 2013, published 2016):
Values joined by “and” are separate entries in the source; they are usually repeats but may differ in a detail not shown here. Equal values may be shown once.

Columns and labels:
[1] = target: T1, Hordeum HPPD (SEQ ID: 2) L353M, P321R, L320N (Hordeum vulgare, UniProt O48604, L320N/L353M/P321R); test: HPPD activity assay, in vitro characterization of HPPD mutants; assay type: biochemical; settings: Table 16, Hordeum wild-type = 1
T1 construct: His (N); made in house; host or cells: E. coli BL21 (DE3)
Method: (§1) HPPD produces homogentisic acid and CO2 from 4-hydroxyphenylpyruvate (4-HPP) and 02. The activity assay for HPPD is based on the analysis of homogentisic acid by reversed phase HPLC. The assay mixture can contain 150 mM potassium phosphate buffer pH 7.0, 50 mM L-ascorbic acid, 100 μM Catalase (Sigma-Aldrich), 1 μM FeSO4 and 0.2 units of purified HPPD enzyme in a total volume of 505 μl. 1 unit is defined as the amount of enzyme that is required to produce 1 nmol of HGA per minute at 20° C.
(§2) After a preincubation of 30 min the reaction is started by adding 4-HPP to a final concentration of 0.05 mM. The reaction is allowed to proceed for 45 min at room temperature. The reaction is stopped by the addition of 50 μl of 4.5 M phosphoric acid. The sample is filtered using a […] pore size PVDF filtration device.
(§3) 5 μl of the cleared sample is analyzed on an UPLC HSS T3 column (particle size 1.8 μm, dimensions 2.1×50 mm; Waters) by isocratic elution using 90% 20 mM NaH2PO4 pH 2.2, 10% methanol (v/v).
(§4) HGA is detected electrochemically at 750 mV (mode: DC; polarity: positive) and quantified by integrating peak areas (Empower software; Waters).
(§5) Inhibitors are dissolved in DMSO (dimethylsulfoxide) to a concentration of 0.5 mM. From this stock solution serial five-fold dilutions are prepared in DMSO, which are used in the assay. The respective inhibitor solution accounts for 1% of the assay volume. […] Activities are normalized by setting the uninhibited enzyme activity to 100%. IC50 values are calculated using non-linear regression.
(§6) Purified, mutant HPPD enzymes are obtained by the methods described above. Dose response and kinetic measurements are carried out using the described HPPD activity assay. Apparent michaelis constants (Km) and maximal reaction velocities (Vmax) are calculated by non-linear regression with the software GraphPad Prism 5 (Graph Pad Software, La Jolla, USA) using a substrate inhibition model. […] Weighted means (by standard error) of Km and IC50 values are calculated from at least three independent experiments.
(§7) Field performance of the optimized HPPD enzyme, which is used as a herbicide tolerance trait may depend not only on its lack of sensitivity towards HPPD inhibiting herbicides but also on its activity. To assess the potential performance of a herbicide tolerance trait a tolerance index (TI) is calculated using the following formula: […]
(§8) Easy comparison and ranking of each trait is enabled by normalizing tolerance indexes on Arabidopsis wild-type HPPD.

[2] = target: T2, Hordeum HPPD (SEQ ID: 2) L353M, P321R, L320Q (Hordeum vulgare, UniProt O48604, L320Q/L353M/P321R); test: as above; assay type: biochemical; settings: Table 16, Hordeum wild-type = 1
T2 construct: His (N); made in house; host or cells: E. coli BL21 (DE3)
Method: as §1, §2, §3, §4, §5, §6, §7, §8

[3] = target: T3, Hordeum HPPD (SEQ ID: 2) S252T (Hordeum vulgare, UniProt O48604, A164G/R146V/R147D/R148G/S252T); test: as above; assay type: biochemical; settings: Table 16, Hordeum wild-type = 1
T3 construct: His (N); made in house; host or cells: E. coli BL21 (DE3)
Method: as §1, §2, §3, §4, §5, §6, §7, §8

[4] = target: T4, Hordeum HPPD (SEQ ID: 2) L320H (Hordeum vulgare, UniProt O48604, A164G/L320H/R146V/R147D/R148G); test: as above; assay type: biochemical; settings: Table 16, Hordeum wild-type = 1
T4 construct: His (N); made in house; host or cells: E. coli BL21 (DE3)
Method: as §1, §2, §3, §4, §5, §6, §7, §8

[5] = test system: Wild-type Arabidopsis plants; test: Arabidopsis growth inhibition in 48-well plates, tolerance factor; assay type: in vivo, Arabidopsis thaliana; settings: plant growth IC50 relative to wild-type plants; Wild-type line
Method: (§9) Depending on the species, the plants are kept at 10-25° C. or 20-35° C. The test period extends over 3 weeks. During this time, the plants are tended and their response to the individual treatments is evaluated. Herbicide injury evaluations are taken at 2 and 3 weeks after treatment. Plant injury is rated on a scale of 0 to 9, 0 being no injury and 9 being complete death. Tolerance to HPPD-inhibiting herbicides can also be assessed in Arabidopsis. In this case transgenic Arabidopsis thaliana plants are assayed for improved tolerance to HPPD-inhibiting herbicides in 48-well plates. Seeds are surface sterilized by stirring for 5 min in ethanol+water (70+30 by volume), rinsing one time with ethanol+water (70+30 by volume) and two times with a sterile, deionized water. The seeds are resuspended in 0.1% agar dissolved in water (w/v). Four to five seeds per well are plated on solid nutrient medium consisting of half-strength Murashige Skoog nutrient solution, pH 5.8 (Murashige and Skoog (1962) Physiologia Plantarum 15: 473-497). […] Seven to ten days after seeding growth inhibition is evaluated by comparison to wild-type plants. Tolerance factor is calculated by dividing the plant growth IC50 value of transgenic plants containing a HPPD and/or HST sequence by that of wild-type plants.

[6] = test system: Arabidopsis overexpression line HvHPPD (SEQ ID: 2) L320H, P321A; test: as above; assay type: in vivo, Arabidopsis thaliana; settings: plant growth IC50 of transgenic / wild-type plants
Method: (§10) Arabidopsis thaliana is transformed with HPPD or HST sequences by floral dip method as described by McElver and Singh (WO 2008/124495). Transgenic Arabidopsis plants are subjected to TaqMan analysis for analysis of the number of integration loci.
(§11) Depending on the species, the plants are kept at 10-25° C. or 20-35° C. The test period extends over 3 weeks. During this time, the plants are tended and their response to the individual treatments is evaluated. Herbicide injury evaluations are taken at 2 and 3 weeks after treatment. Plant injury is rated on a scale of 0 to 9, 0 being no injury and 9 being complete death. Tolerance to HPPD-inhibiting herbicides can also be assessed in Arabidopsis. In this case transgenic Arabidopsis thaliana plants are assayed for improved tolerance to HPPD-inhibiting herbicides in 48-well plates. Seeds are surface sterilized by stirring for 5 min in ethanol+water (70+30 by volume), rinsing one time with ethanol+water (70+30 by volume) and two times with a sterile, deionized water. The seeds are resuspended in 0.1% agar dissolved in water (w/v). Four to five seeds per well are plated on solid nutrient medium consisting of half-strength Murashige Skoog nutrient solution, pH 5.8 (Murashige and Skoog (1962) Physiologia Plantarum 15: 473-497). Compounds are dissolved in dimethylsulfoxid (DMSO) and added to the medium prior solidification (final DMSO concentration 0.1%). Multi well plates are incubated in a growth chamber at 22° C., 75% relative humidity and 110 μmol Phot*m-2*s-1 with 14:10 h light:dark photoperiod. Seven to ten days after seeding growth inhibition is evaluated by comparison to wild-type plants. Tolerance factor is calculated by dividing the plant growth IC50 value of transgenic plants containing a HPPD and/or HST sequence by that of wild-type plants.

[7] = test system: Arabidopsis overexpression line Picrophilus HPPD; test: as above; assay type: in vivo, Arabidopsis thaliana; settings: plant growth IC50 of transgenic / wild-type plants
Method: as §10, §11

[8] = test system: Arabidopsis overexpression line AtHPPD (Seq ID: 53) M335H, P336G, E363Q; test: as above; assay type: in vivo, Arabidopsis thaliana; settings: plant growth IC50 of transgenic / wild-type plants
Method: as §10, §11

[9] = test system: Arabidopsis overexpression line AtHPPD (Seq ID: 53) F381I; test: as above; assay type: in vivo, Arabidopsis thaliana; settings: plant growth IC50 of transgenic / wild-type plants
Method: as §10, §11

[10] = test system: Arabidopsis overexpression line HvHPPD (SEQ ID: 2); test: as above; assay type: in vivo, Arabidopsis thaliana; settings: plant growth IC50 of transgenic / wild-type plants
Method: as §10, §11

[11] = test system: Arabidopsis overexpression line AtHPPD (Seq ID: 53); test: as above; assay type: in vivo, Arabidopsis thaliana; settings: plant growth IC50 of transgenic / wild-type plants
From the text: Rows A-F are individual events. Non-transformed control plants are marked as wild-type (WT). The HPPD-inhibiting herbicide used refers to (NE)-8-chloro-N-(4-methoxy-1,2,5-oxadiazol-3-ylidene)-4,4-dimethyl-1,1-dioxo-2,3-dihydrothiochromene-7-carboxamide
as §10
as §9, with “plates.” for “plates. Seeds are surface sterilized by stirring for 5 min in ethanol+water (70+30 by volume), rinsing one time with ethanol+water (70+30 by volume) and two times with a sterile, deionized water. The seeds are resuspended in 0.1% agar dissolved in water (w/v). Four to five seeds per well are plated on solid nutrient medium consisting of half-strength Murashige Skoog nutrient solution, pH 5.8 (Murashige and Skoog (1962) Physiologia Plantarum 15: 473-497).”

T2 sequence (O48604 whole entry R146V/R147D/R148G/A164G/L320Q/P321R/L353M): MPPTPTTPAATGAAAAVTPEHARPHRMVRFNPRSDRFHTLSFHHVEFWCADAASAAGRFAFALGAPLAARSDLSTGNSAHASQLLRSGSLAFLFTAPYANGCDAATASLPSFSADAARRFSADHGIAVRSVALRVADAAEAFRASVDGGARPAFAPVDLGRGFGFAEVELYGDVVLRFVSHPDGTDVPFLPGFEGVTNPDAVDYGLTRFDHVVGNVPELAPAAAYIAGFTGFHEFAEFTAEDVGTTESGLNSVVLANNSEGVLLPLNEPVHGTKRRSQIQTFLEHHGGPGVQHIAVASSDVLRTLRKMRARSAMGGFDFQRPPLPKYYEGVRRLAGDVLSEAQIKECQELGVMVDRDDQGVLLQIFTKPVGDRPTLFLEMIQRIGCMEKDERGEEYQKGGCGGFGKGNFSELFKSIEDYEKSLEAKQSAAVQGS
T4 sequence (O48604 whole entry R146V/R147D/R148G/A164G/L320H): as the sequence (O48604 whole entry R146V/R147D/R148G/A164G/L320Q/P321R/L353M) above, with Q320H, R321P, M353L counted along it
T1 sequence (O48604 whole entry R146V/R147D/R148G/A164G/L320N/P321R/L353M): as the sequence (O48604 whole entry R146V/R147D/R148G/A164G/L320Q/P321R/L353M) above, with Q320N counted along it
T3 sequence (O48604 whole entry R146V/R147D/R148G/A164G/S252T): as the sequence (O48604 whole entry R146V/R147D/R148G/A164G/L320Q/P321R/L353M) above, with S252T, Q320L, R321P, M353L counted along it

COc1no[nH]/c1=N/C(=O)c1ccc2c(c1Cl)S(=O)(=O)CCC2(C)C [Inhibitor 1, (NE)-8-chloro-N-(4-methoxy-1,2,5-oxadiazol-3-ylidene)-4,4-dimethyl-1,1-dioxo-2,3-dihydrothiochromene-7-carboxamide]
TI Inhibitor 1 (normalized tolerance index) [1]: 0.2
TI Inhibitor 1 (normalized tolerance index) [2]: 1.2
TI Inhibitor 1 (normalized tolerance index) [3]: 2.4
TI Inhibitor 1 (normalized tolerance index) [4]: 0.6
Tolerance factor towards Inhibitor 1 [5]: 1
Tolerance factor towards Inhibitor 1 [6]: 85
Tolerance factor towards Inhibitor 1 [7]: 4.5
Tolerance factor towards Inhibitor 1 [8]: 15.8
Tolerance factor towards Inhibitor 1 [9]: 37.5
Tolerance factor towards Inhibitor 1 [10]: 76
Tolerance factor towards Inhibitor 1 [11]: 6.4

Cc1c(C(=O)Nc2nnnn2C)ccc2c1C(=O)C(C)(C)CS2(=O)=O [Inhibitor 2, 3,3,5-trimethyl-N-(1-methyltetrazol-5-yl)-1,1,4-trioxo-2H-thiochromene-6-carboxamide]
TI Inhibitor 2 (normalized tolerance index) [1]: 3.5
TI Inhibitor 2 (normalized tolerance index) [2]: 3.5 and 3.4
TI Inhibitor 2 (normalized tolerance index) [3]: 5.9
TI Inhibitor 2 (normalized tolerance index) [4]: 4.4
Tolerance factor towards Inhibitor 2 [5]: 1
Tolerance factor towards Inhibitor 2 [6]: 7.9
Tolerance factor towards Inhibitor 2 [7]: 2.6
Tolerance factor towards Inhibitor 2 [8]: 60.8
Tolerance factor towards Inhibitor 2 [9]: 60.8
Tolerance factor towards Inhibitor 2 [10]: 10.2
Tolerance factor towards Inhibitor 2 [11]: 3
